Structures are written as SMILES. Bridge positions count the residues as written; N and C are the ends. Square brackets hold non-standard residues; d marks the D form. Peptide text beside a SMILES is read from it. Hyp = O=C(O)[C@@H]1C[C@@H](O)CN1; Cit = NC(=O)NCCC[C@H](N)C(=O)O

One data set concerns the target T1, hAMY3 receptor (Homo sapiens, UniProt O60896+P30988).
T1 sequence (P30988 25-474): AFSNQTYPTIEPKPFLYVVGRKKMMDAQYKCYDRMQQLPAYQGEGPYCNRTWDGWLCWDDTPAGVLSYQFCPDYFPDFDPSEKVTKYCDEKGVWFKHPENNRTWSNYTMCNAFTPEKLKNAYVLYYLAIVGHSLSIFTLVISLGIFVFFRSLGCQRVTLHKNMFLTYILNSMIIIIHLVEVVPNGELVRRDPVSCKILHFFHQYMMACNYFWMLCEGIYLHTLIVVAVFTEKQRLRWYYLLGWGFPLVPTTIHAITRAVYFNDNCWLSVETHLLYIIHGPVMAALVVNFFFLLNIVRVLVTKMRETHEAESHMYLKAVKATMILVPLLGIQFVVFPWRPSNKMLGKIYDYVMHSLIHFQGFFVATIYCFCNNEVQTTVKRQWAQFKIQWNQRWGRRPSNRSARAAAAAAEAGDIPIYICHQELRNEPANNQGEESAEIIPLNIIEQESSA
T1 sequence (O60896 24-148 partner): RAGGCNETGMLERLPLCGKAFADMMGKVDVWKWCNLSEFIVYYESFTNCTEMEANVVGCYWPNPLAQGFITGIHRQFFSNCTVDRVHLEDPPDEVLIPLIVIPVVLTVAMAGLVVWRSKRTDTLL
Put plainly: cAMP assay for in vitro receptor activation, hAMY3-R. The data set is classed as cell-based. To be noted: cAMP assay, hAMY3 receptor; read-out: hAMY3R EC50. Summed up: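 Stable hAMY3 cells; DPBS + 0.05% casein + 0.5 mM IBMX; graded compound doses, 30 min, RT; cAMP via HTRF Gs kit, TR-FRET read at 1 h.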

Data set [1] can be described thus: Physical stability of peptide analogues (Thioflavin T fibrillation). Conditions: maximum ThT signal normalized between hAMY maximum and buffer background; 40° C., shaking, four days; pH 7 per table title. Type of data set: physicochemical. A digest of the protocol:
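Peptides in 50 mM sodium acetate pH 4 or 50 mM sodium phosphate pH 7 were preincubated 1 h, mixed with 4 μM ThT, held at 40° C with 700 rpm shaking before each read. Fluorescence (ex 450/em 480 nm) every 10 min for four days; LOESS-smoothed maximum signal normalized in percent between hAMY and buffer.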

Consider `CC[C@H](C)[C@H](NC(=O)[C@H](CCC(N)=O)NC(=O)[C@H](Cc1c[nH]cn1)NC(=O)[C@H](C)NC(=O)[C@H](CC(C)C)NC(=O)[C@H](CCCNC(=N)N)NC(=O)[C@H](CCC(N)=O)NC(=O)[C@@H](NC(=O)[C@@H](NC(=O)[C@@H]1CSSC[C@H](NC(=O)CN)C(=O)N[C@@H](CCCNC(=N)N)C(=O)N[C@@H](Cc2ccccc2)C(=O)NCC(=O)N[C@@H]([C@@H](C)O)C(=O)N1)[C@@H](C)O)C(C)C)C(=O)N[C@@H](Cc1ccc(O)cc1)C(=O)N[C@@H](CCC(N)=O)C(=O)N[C@@H](Cc1ccccc1)C(=O)N[C@H](C(=O)N[C@@H](CC(=O)O)C(=O)N[C@@H](CCCCN)C(=O)N[C@@H](CC(=O)O)C(=O)N[C@@H](CCCCN)C(=O)N[C@@H](CC(=O)O)C(=O)N[C@@H](CC(N)=O)C(=O)N[C@H](C(=O)N[C@@H](C)C(=O)N1CCC[C@H]1C(=O)N[C@@H](CCCNC(=N)N)C(=O)N[C@H](C(=O)N[C@@H](CC(N)=O)C(=O)N[C@H](C(=O)NCC(=O)N1CCC[C@H]1C(=O)N[C@@H](CC(N)=O)C(=O)NCC(=O)N1C[C@H](O)C[C@H]1C(N)=O)C(C)C)[C@@H](C)O)C(C)C)[C@@H](C)O` [compound 90] (H-GCRFGTCTVQRLAHQIYQFTDKDKDNVAPRTNVGPNG[Hyp]-NH2; disulfide 2-7; N-terminus assumed), for which the EC50 at hAMY3 receptor was determined as 0.016 nM. For the same compound, the “Max ThT signal (%)” value in data set [1] is given as 2.000%.

For the compound `CC[C@H](C)[C@H](NC(=O)[C@H](CCC(N)=O)NC(=O)[C@H](Cc1c[nH]cn1)NC(=O)[C@H](C)NC(=O)[C@H](CC(C)C)NC(=O)[C@H](CCCNC(=N)N)NC(=O)[C@H](CCC(N)=O)NC(=O)[C@@H](NC(=O)[C@@H](NC(=O)[C@@H]1CSSC[C@H](NC(=O)CN)C(=O)N[C@@H](CCCNC(=N)N)C(=O)N[C@@H](Cc2ccccc2)C(=O)NCC(=O)N[C@@H]([C@@H](C)O)C(=O)N1)[C@@H](C)O)C(C)C)C(=O)N[C@@H](Cc1ccc(O)cc1)C(=O)N[C@@H](CCC(N)=O)C(=O)N[C@@H](Cc1ccccc1)C(=O)N[C@H](C(=O)N[C@@H](CC(=O)O)C(=O)N[C@@H](CCCCN)C(=O)N[C@@H](CC(=O)O)C(=O)N[C@@H](CCCCN)C(=O)N[C@@H](CC(=O)O)C(=O)N[C@@H](CC(N)=O)C(=O)N[C@H](C(=O)N[C@@H](C)C(=O)N1CCC[C@H]1C(=O)N[C@@H](CCCNC(=N)N)C(=O)N[C@H](C(=O)N[C@@H](CCCCN)C(=O)N[C@H](C(=O)N[C@@H](CO)C(=O)N1CCC[C@H]1C(=O)N[C@@H](CCC(N)=O)C(=O)NCC(=O)N[C@@H](Cc1ccc(O)cc1)C(N)=O)[C@@H](C)CC)[C@@H](C)O)C(C)C)[C@@H](C)O` [compound 164] (H-GCRFGTCTVQRLAHQIYQFTDKDKDNVAPRTKISPQGY-NH2; disulfide 2-7), on hAMY3 receptor, the 50% effective concentration (EC50) was 0.054 nM. In data set [1], the “Max ThT signal (%)” value was found to be 24.300%.

As to `CC[C@H](C)[C@H](NC(=O)[C@H](CCC(N)=O)NC(=O)[C@H](Cc1c[nH]cn1)NC(=O)[C@H](C)NC(=O)[C@H](CC(C)C)NC(=O)[C@H](CCCNC(=N)N)NC(=O)[C@H](CCC(N)=O)NC(=O)[C@@H](NC(=O)[C@@H](NC(=O)[C@@H]1CSSC[C@H](NC(=O)[C@@H](N)CCCCN)C(=O)N[C@@H](CCCNC(=N)N)C(=O)N[C@@H](Cc2ccccc2)C(=O)NCC(=O)N[C@@H]([C@@H](C)O)C(=O)N1)[C@@H](C)O)C(C)C)C(=O)N[C@@H](Cc1ccc(O)cc1)C(=O)N[C@@H](CCC(N)=O)C(=O)N[C@@H](Cc1ccccc1)C(=O)N[C@H](C(=O)N[C@@H](CC(=O)O)C(=O)N[C@@H](CCCCN)C(=O)N[C@@H](CC(=O)O)C(=O)N[C@@H](CCCCN)C(=O)N[C@@H](CC(=O)O)C(=O)N[C@@H](CC(N)=O)C(=O)N[C@H](C(=O)N[C@@H](C)C(=O)N1CCC[C@H]1C(=O)N[C@@H](CCCNC(=N)N)C(=O)N[C@@H](CO)C(=O)N[C@@H](CCCCN)C(=O)N[C@H](C(=O)N[C@@H](CO)C(=O)N1CCC[C@H]1C(=O)N[C@@H](CCC(N)=O)C(=O)N[C@H](C(=O)N1C[C@H](O)C[C@H]1C(N)=O)[C@@H](C)O)[C@@H](C)CC)C(C)C)[C@@H](C)O` [compound 205] (H-KCRFGTCTVQRLAHQIYQFTDKDKDNVAPRSKISPQT[Hyp]-NH2; disulfide 2-7; N-terminus assumed), the EC50 on hAMY3 receptor is 0.13 nM. The “Max ThT signal (%)” value in data set [1] is 7.800%.

Turning to `CC[C@H](C)[C@H](NC(=O)[C@H](CCC(N)=O)NC(=O)[C@H](Cc1c[nH]cn1)NC(=O)[C@H](C)NC(=O)[C@H](CC(C)C)NC(=O)[C@H](CCCNC(=N)N)NC(=O)[C@H](CCC(N)=O)NC(=O)[C@@H](NC(=O)[C@@H](NC(=O)[C@@H]1CSSC[C@H](NC(=O)CN)C(=O)N[C@@H](CCCNC(=N)N)C(=O)N[C@@H](Cc2ccccc2)C(=O)NCC(=O)N[C@@H]([C@@H](C)O)C(=O)N1)[C@@H](C)O)C(C)C)C(=O)N[C@@H](Cc1ccc(O)cc1)C(=O)N[C@@H](CCC(N)=O)C(=O)N[C@@H](Cc1ccccc1)C(=O)N[C@H](C(=O)N[C@@H](CC(=O)O)C(=O)N[C@@H](CCCCN)C(=O)N[C@@H](CC(=O)O)C(=O)N[C@@H](CCCCN)C(=O)N[C@@H](CC(=O)O)C(=O)N[C@@H](CC(N)=O)C(=O)N[C@H](C(=O)N[C@@H](C)C(=O)N1CCC[C@H]1C(=O)N[C@@H](CCCNC(=N)N)C(=O)N[C@H](C(=O)N[C@@H](CCCCN)C(=O)N[C@H](C(=O)N[C@@H](CO)C(=O)N1CCC[C@H]1C(=O)N[C@@H](CC(N)=O)C(=O)NCC(=O)N1C[C@H](O)C[C@H]1C(N)=O)C(C)C)[C@@H](C)O)C(C)C)[C@@H](C)O` [compound 134] (H-GCRFGTCTVQRLAHQIYQFTDKDKDNVAPRTKVSPNG[Hyp]-NH2; disulfide 2-7; N-terminus assumed), the EC50 on hAMY3 receptor came out at 0.032 nM. Further, in data set [1], the “Max ThT signal (%)” value is reported as 17.400%.

Turning to `CC(C)C[C@H](NC(=O)[C@H](CCCNC(N)=O)NC(=O)[C@H](CCC(N)=O)NC(=O)[C@@H](NC(=O)[C@@H](NC(=O)[C@@H]1CSSC[C@H](NC(=O)CN)C(=O)N[C@@H](CCCNC(=N)N)C(=O)N[C@@H](Cc2ccccc2)C(=O)NCC(=O)N[C@@H]([C@@H](C)O)C(=O)N1)[C@@H](C)O)C(C)C)C(=O)N[C@@H](C)C(=O)N[C@@H](Cc1c[nH]cn1)C(=O)N[C@@H](Cc1ccccc1)C(=O)N[C@@H](CC(C)C)C(=O)N[C@@H](Cc1ccc(O)cc1)C(=O)N[C@@H](CCC(N)=O)C(=O)N[C@@H](Cc1ccccc1)C(=O)N[C@H](C(=O)N[C@@H](CC(=O)O)C(=O)N[C@@H](CCCCN)C(=O)N[C@@H](CC(=O)O)C(=O)N[C@@H](CCCCN)C(=O)N[C@@H](CC(=O)O)C(=O)N[C@@H](CC(N)=O)C(=O)N[C@H](C(=O)N[C@@H](C)C(=O)N1CCC[C@H]1C(=O)N[C@@H](CCCNC(=N)N)C(=O)N[C@H](C(=O)N[C@@H](CC(N)=O)C(=O)N[C@H](C(=O)NCC(=O)N1CCC[C@H]1C(=O)N[C@@H](CCC(N)=O)C(=O)NCC(=O)N[C@@H](Cc1ccc(O)cc1)C(N)=O)C(C)C)[C@@H](C)O)C(C)C)[C@@H](C)O` [compound 263] (H-GCRFGTCTVQ[Cit]LAHFLYQFTDKDKDNVAPRTNVGPQGY-NH2; disulfide 2-7; N-terminus assumed), the EC50 on hAMY3 receptor came to 0.005 nM. In addition, the “Max ThT signal (%)” value in data set [1] is on record as 1.050%.

For the compound `CC[C@H](C)[C@H](NC(=O)[C@H](CCC(N)=O)NC(=O)[C@H](Cc1c[nH]cn1)NC(=O)[C@H](C)NC(=O)[C@H](CC(C)C)NC(=O)[C@H](CCCNC(=N)N)NC(=O)[C@H](CCC(N)=O)NC(=O)[C@@H](NC(=O)[C@@H](NC(=O)[C@@H]1CSSC[C@H](NC(=O)CN)C(=O)N[C@@H](CCCNC(=N)N)C(=O)N[C@@H]([C@@H](C)O)C(=O)NCC(=O)N[C@@H]([C@@H](C)O)C(=O)N1)[C@@H](C)O)C(C)C)C(=O)N[C@@H](Cc1ccc(O)cc1)C(=O)N[C@@H](CCC(N)=O)C(=O)N[C@@H](Cc1ccccc1)C(=O)N[C@H](C(=O)N[C@@H](CC(=O)O)C(=O)N[C@@H](CCCCN)C(=O)N[C@@H](CC(=O)O)C(=O)N[C@@H](CCCCN)C(=O)N[C@@H](CC(=O)O)C(=O)N[C@@H](CC(N)=O)C(=O)N[C@H](C(=O)N[C@@H](C)C(=O)N1CCC[C@H]1C(=O)N[C@@H](CCCNC(=N)N)C(=O)N[C@H](C(=O)N[C@@H](CCCCN)C(=O)N[C@H](C(=O)NCC(=O)N1CCC[C@H]1C(=O)N[C@@H](CCC(N)=O)C(=O)NCC(=O)N1C[C@H](O)C[C@H]1C(N)=O)C(C)C)[C@@H](C)O)C(C)C)[C@@H](C)O` [compound 143] (H-GCRTGTCTVQRLAHQIYQFTDKDKDNVAPRTKVGPQG[Hyp]-NH2; disulfide 2-7; N-terminus assumed), the EC50 at hAMY3 receptor came out at 0.038 nM. Also, the “Max ThT signal (%)” value in data set [1] was 2.200%.

For orientation: EC50 means the concentration needed to bring the measured effect to its halfway point.

The values above are taken from patent publication US12139520B2 (priority 2020, dated 2024).
